According to patent publication US10696947B2, “Culture medium composition for maturating cardiomyocytes derived from pluripotent mammalian stem cells” (Ncardia B.V., priority 2013, dated 2020):
Entries after “also recorded” stand apart in the source; their conditions may differ.

How the values were obtained:
Format in all cases: cell-based
[1] = tested on: foetal-like (immature) cardiomyocytes derived from PESC; assay: Metabolic profile by TMRM assay (flow cytometry); settings: 100 ng/ml T3 in culture medium, 17 days, 5 nM TMRM, compared to medium lacking T3
Experimental: Foetal-like (immature) cardiomyocytes derived from PESC in in vitro culture were divided in two experimental groups. The first group was exposed to a culture medium composition as taught herein but which lacked T3 (control situation). The second group was exposed to a culture medium composition as taught herein but which comprised T3 (100 ng/ml). Both groups were incubated in their respective culture medium composition for 17 days. An amount of 5 nM TMRM (Invitrogen) was added in the respective media the day before measurement. Cells were dissociated using 5× Tryple, but with TMRM included in all solutions and also present during measurement, Measurements were performed on a Miltenyi MACSquant VYB flow cytometer.

[2] = tested on: foetal-like (immature) cardiomyocytes derived from human pluripotent embryonic stem cells (PESCs); assay: Electrophysiological properties by perforated patch clamp; settings: 100 ng/ml T3 in culture medium, 12 days, compared to medium lacking T3
Experimental: Foetal-like (immature) cardiomyocytes derived from PESC in in vitro culture were divided in two experimental groups. The first group was exposed to a culture medium composition as taught herein but which lacked T3 (control situation). The second group was exposed to a culture medium composition as taught herein but which comprised T3 (100 ng/ml). Both groups were incubated in their respective culture medium composition for 12 days. At the term of the treatment, foetal-like (immature) cardiomyocytes from both experimental groups were subjected to a patch clamp procedure.
Patch clamp electrophysiology was performed as described by Bellin, M. et al. EMBO J 32, 3161-3175 (2013)). using minor modifications. Action potentials from small groups of cells (5-10 cells) were measured with the perforated patch clamp technique using an Axopatch 200b amplifier (Molecular Devices) and low resistance patch pipettes (1.5-2.5 MΩ). Data acquisition and analyses of action potentials were performed with pClamp 10 (axon instruments) and custom made software. Action Potentials were corrected for the calculated liquid junction potential (−15 mV).
Action potentials from spontaneous beating cells were measured at […] using a modified Tyrode's solution containing (in mM): 140 NaCl, 5.4 KCl, 1.8 CaCl2, 1.0 MgCl2, 5.5 glucose, 5.0 HEPES; pH7.2 (NaOH). The pipette solution contained (in mM): 125 K-gluconate, 20 KCl, 5 NaCl, 0.22 amphotericin-B, 10 HEPES; pH 7.2 (KOH). The resting membrane potential (RMP), maximal upstroke velocity (dV/dt max), AP amplitude in mV (APA), and AP duration in milli-seconds (APD) at 20, 50 and 90% repolarization (APD50, and APD90, respectively) were analyzed. Upstroke velocity was calculated from the first derivative of the change in voltage as a function of time. Thus the maximum upstroke velocity (dV/dt max) is equal to the maximum positive value of the first derivative of the action potential. Data from 10 consecutive action potentials were averaged.

[3] = tested on: foetal-like (immature) cardiomyocytes derived from human pluripotent embryonic stem cells (PESCs); assay: Morphological features by alpha-actinin immunofluorescence; settings: 100 ng/ml T3 in culture medium composition, 5 days, compared to medium lacking T3
Experimental: Foetal-like (immature) cardiomyocytes derived from PESC in in vitro culture were divided in two experimental groups. The first group was exposed to a culture medium composition as taught herein but which lacked T3 (control situation). The second group was exposed to a culture medium composition as taught herein but which comprised T3 (100 ng/ml). Both groups were incubated in their respective culture medium composition for 5 days, At the term of the treatment, cardiomyocytes from both experimental groups were fixed in 4% paraformaldehyde, permeabilised with phosphate buffer saline (PBS)/0.1% Triton X-100 (Sigma-Aldrich), and blocked with phosphate buffer saline (PBS)/0.1% Triton X-100 (Sigma-Aldrich) 1% BSA. Samples were incubated 1-hour at room temperature with a primary antibodies specific for the following: alpha-actinin (Eptomics Ab 68167) (at a concentration of 1/400), The primary antibody was detected with either Cy3- or Alexa-Fluor 647-conjugated secondary antibodies (at a concentration of 1/250). Images were captured using either a Leica SP5-STED or a Leica SP5 confocal laser-scanning microscope (Leica Microsystems).

Structure (SMILES): N[C@@H](Cc1cc(I)c(Oc2ccc(O)c(I)c2)c(I)c1)C(=O)O [T3, triiodothyronine]
- mitochondrial activity (TMRM-associated orange fluorescence) [1]: enhanced mitochondrial activity; also recorded: increased mitochondrial activity
- amplitude of the action potential [2]: greater amplitude of the action potential; also recorded: increased amplitude of the action potential
- maximal upstroke velocity (dV/dt max) [2]: greater maximal upstroke velocity; also recorded: increased maximum upstroke velocity
- resting membrane potential [2]: lower resting membrane potential
- morphological features (maturation into adult-like cardiomyocytes) [3]: polarization of cells, improved sarcomeric organization, and elongated shape
